Source: patent publication US12319684B2 (Sanford Burnham Prebys Medical Discovery Institute, priority 2014, dated 2025)

Tests used:
[1] = molecular target: T1, human apelin receptor (APJ, AGTRL-1, APLNR) (Homo sapiens, UniProt P35414); assay: APJ cAMP cell-based assay (forskolin-stimulated CHO cells, enzyme fragment complementation); details: for EC50: CHO cells expressing human APJ, forskolin-stimulated, 0.5 h incubation, 50% of control (apelin-13, 1 nM) response, read-out: APJ cAMP EC50; for Emax: CHO, 0.5 h, percentage of the maximal apelin-13 response at 1 nM (control), read-out: APJ cAMP % resp (efficacy)
T1 construct: host or cells: Chinese hamster ovary cells
T1 sequence (P35414 1-380): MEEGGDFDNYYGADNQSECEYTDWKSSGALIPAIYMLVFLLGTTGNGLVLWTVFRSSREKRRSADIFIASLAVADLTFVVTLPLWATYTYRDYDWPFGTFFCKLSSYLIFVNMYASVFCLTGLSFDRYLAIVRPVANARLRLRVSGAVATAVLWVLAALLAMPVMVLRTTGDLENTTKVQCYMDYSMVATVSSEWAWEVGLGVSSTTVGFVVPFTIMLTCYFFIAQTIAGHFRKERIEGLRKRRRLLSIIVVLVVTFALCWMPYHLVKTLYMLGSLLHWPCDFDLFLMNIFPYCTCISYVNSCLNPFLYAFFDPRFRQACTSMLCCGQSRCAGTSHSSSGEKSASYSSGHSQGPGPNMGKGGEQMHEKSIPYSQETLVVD

[2] = tested on: abdominal aortic aneurysms; details: mouse model of abdominal aortic aneurysms; cited from earlier work
[3] = tested on: vasopressin release; details: intracerebral injection; cited from earlier work

COc1ccccc1-n1c(OCc2cc(=O)n3cc(C)ccc3n2)nnc1-c1cccs1 [Example 83, 2-(((4-(2-methoxyphenyl)-5-(thiophen-2-yl)-4H-1,2,4-triazol-3-yl)oxy)methyl)-7-methyl-4H-pyrido[1,2-a]pyrimidin-4-one]
EC50 [1]: 45 nM
Emax [1]: 52%

COc1ccccc1-n1c(OCc2csc(-c3ccccc3)n2)nnc1-c1cccs1 [Example 84]
EC50 [1]: 680 nM
Emax [1]: 109%

COc1ccccc1-n1c(NCc2csc(-c3ccc(C)cc3)n2)nnc1-c1cccs1 [Example 86, [4-(2-Methoxy-phenyl)-5-thiophen-2-yl-4H-[1,2,4]triazol-3-yl]-(2-p-tolyl-thiazol-4-ylmethyl)-amine]
EC50 [1]: > 10000 nM

COc1ccccc1-n1c(NCc2coc(-c3ccc(C)cc3)n2)nnc1-c1cccs1 [Example 87, [4-(2-Methoxy-phenyl)-5-thiophen-2-yl-4H-[1,2,4]triazol-3-yl]-(2-p-tolyl-oxazol-4-ylmethyl)-amine]
EC50 [1]: > 10000 nM

apelin
reduction of aneurysm [2]: 50%
reduction in plasma vasopressin concentrations [3]: 40%
